Laboratory results: patent US20070149481A1, “N,n-bridged, nitrogen-substituted carbacyclic indolocarbazoles as protein kinase inhibitors” (priority 2002, published 2007)
“And” between values parts separate entries of the source, which are not always exact repeats. Identical values can stand only once.

Experiments:
[1] = molecular target: His tagged ERK2 (Homo sapiens, UniProt P28482); test: Extracellular signal Regulated Kinase 2 inhibition assay (ERK2), radioactive filtermat format; assay type: biochemical; details: 10 μM compound
Procedure: (§1) The ERK2 kinase activity assay utilizes a radioactivity-based format in a 96-well PCR plate with radioactive readout. The ERK2 activity was assayed in a 25 μL assay mixture containing 25 mM HEPES (pH 7.0), 250 μM ATP, 1 mM MgCl2, 1 mM DTT, 2% DMSO, 150 ng/mL Myelin Basic Protein (MBP, Sigma M-1891), and 13.6 ng/mL His tagged ERK2 (specific activity=38.1 nmol/min*mg). Compounds were screened for inhibition of the ERK2 kinase activity at a concentration of 10 μM. The kinase reaction was allowed to proceed at 37° C. for 30 minutes, then reaction was stopped by the addition of 5 μl of 0.5M EDTA (pH 8). 15 μL of each solution were then spotted onto the corresponding square of a filtermat (8×12 glassfibre mat 90×120 mm, PE-Wallac 1450-421). The filtermat was allowed to dry and washed once with 10% TCA, 2% PPA, 500 mM NaCl each for 30 minutes at rt. Two further washings in 10% TCA and 2% PPA for 30 minutes were performed, then a final 30 minute wash in 99% EtOH at rt was done and the filtermat was air dried. The dry filtermat was then placed in a sample bag with a Meltilex sheet (Melt-on scintillator sheets 73×109 mm, PE-Wallac 1450-441 for filtermat A) over the filtermat. The bag was trimmed to fit into the microplate heatsealer (PE-Wallac 1495-021). The heatsealer is used to melt the Meltilex on the filtermat. The bag containing the filtermat and the melted Meltilex was then placed into a filter cassette and counted using the Microbeta Jet Scintillation and Luminescence Counter PE-Wallac 1450.

[2] = molecular target: T1, PKA (catalytic subunit, bovine heart) (Bos taurus, UniProt P00517); test: Protein Kinase A inhibition assay (PKA); assay type: biochemical; details: 10 μM compound
T1 construct: PKA (catalytic subunit, bovine heart, Calbiochem 539486); purchased Calbiochem 539486; host or cells: bovine heart (tissue-derived)
Procedure: as §1
The PKA kinase activity assay utilizes a radioactivity-based format in a 96-well PCR plate with radioactive readout. The PKA activity was assayed in a 25 μL assay mixture containing 25 mM HEPES (pH 7.0), 250 μM ATP, 10 mM MgCl2, 1 mM DTT, 1 mM EDTA (pH 8). 2% DMSO. 250 ng/mL Histone H2B (Roche 223 514), and 2 ng/mL PKA (catalytic subunit, bovine heart, Calbiochem 539486, specific activity=1170 pmol/min*μg). Compounds were screened for inhibition of the PKA kinase activity at a concentration of 10 μM. The kinase reaction was allowed to proceed at 37° C. for 30 minutes, then the reaction was stopped by addition of 5 μL of 0.5M EDTA (pH 8). The remainder of the protocol is identical to the one reported for ERK2.

[3] = tested on: PKC (rat brain); test: Protein Kinase C inhibition assay (PKC); assay type: biochemical; details: 10 μM compound
Procedure: as §1
The PKC kinase activity assay utilizes a radioactivity-based format in a 96-well PCR plate with radioactive readout. The PKC activity was assayed in a 25 μL assay mixture containing 25 mM HEPES (pH 7.0), 250 μM ATP, 10 mM MgCl2, 1 mM DTT, 1 mM EDTA (pH 8), 2 mM CaCl2, 2% DMSO, 250 ng/mL Histone H1 (Roche 1 004 875), and 165 ng/mL PKC (rat brain, Calbiochem 539494, specific activity=1600 nmol/min*mg). Compounds were screened for inhibition of the PKC kinase activity at a concentration of 10 μM. The kinase reaction was allowed to proceed at 37° C. for 30 minutes, then the reaction was stopped by addition of 5 μL of 0.5M EDTA (pH 8). The remainder of the protocol is identical to the one reported for ERK2.

[4] = molecular target: T2, GSK3β (Homo sapiens, UniProt P49841); test: Glycogen Synthase Kinase 3β inhibition assay (GSK3β); assay type: biochemical; details: 10 μM compound
T2 construct: purchased Upstate Discovery
Procedure: The GSK3β kinase activity assay utilizes a radioactivity-based format in a 96-well PCR plate with radioactive readout. The GSK3 β activity was assayed in a 25 μL assay mixture containing 8 mM HEPES (pH 7.0), 250 μM ATP, 0.2 mM EDTA (pH 8), 2% DMSO, 250 ng/mL Myelin Basic Protein (MBP, Sigma M-1891), and 12 ng/mL GSK3β (Upstate Discovery, specific activity=607 nmol/min*GS2 peptide, concentration of 6.05 mg/mL). Compounds were screened for inhibition of the GSK3β kinase activity at a concentration of 10 μM. The kinase reaction was allowed to proceed at 37° C. for 30 minutes, then the reaction was stopped by addition of 5 μL of 0.5M EDTA (pH 8).

[5] = Solubility of free base NAD0241 and its hydrochloride salt in 99/1 water/DMSO; assay type: physicochemical; details: 18 hours equilibration at room temperature, duplicate experiments
Procedure: Stock solutions of NAD0241 (100 mM) and of its hydrochloride salt ([…]) in DMSO (UV-grade) were prepared freshly before the experiment and further diluted to a final concentration of 10 mM. These stock solutions in 100% DMSO were diluted with water (UV grade) to provide five 99/1 water/DMSO samples with varying concentrations of the compound (1000, 500, 100, 50 and 10 μM).
Each sample was thoroughly mixed by rigorous vortexing (30 seconds) followed by equilibration for 18 hours at room temperature. A […] for each sample was transferred into 1.5 mL polypropylene tubes and centrifuged for 30 minutes at room temperature at 16000 g in a fixed angle tabletop centrifuge (Heraeus Biofuge pico equipped with #3325 rotor). The supernatant was pipetted into a quartz glass cuvette and UV-absorption (322 nm) was measured in a UV spectrophotometer (Varian Cary 50). Each experiment was run in duplicate.

T2 sequence (P49841 whole entry, species assumed): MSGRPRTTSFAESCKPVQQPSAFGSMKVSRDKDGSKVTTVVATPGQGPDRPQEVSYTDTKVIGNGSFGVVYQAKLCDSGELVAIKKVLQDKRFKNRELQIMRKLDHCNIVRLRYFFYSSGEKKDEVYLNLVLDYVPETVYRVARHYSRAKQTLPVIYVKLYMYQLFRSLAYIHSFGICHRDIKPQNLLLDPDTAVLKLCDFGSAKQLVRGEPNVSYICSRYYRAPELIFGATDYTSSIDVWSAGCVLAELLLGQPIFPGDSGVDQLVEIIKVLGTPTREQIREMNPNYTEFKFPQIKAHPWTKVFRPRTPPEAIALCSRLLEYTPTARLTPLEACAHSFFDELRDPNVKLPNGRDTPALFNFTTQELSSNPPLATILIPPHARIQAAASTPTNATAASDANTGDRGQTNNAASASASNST
Sequence of His tagged ERK2 (P28482 whole entry): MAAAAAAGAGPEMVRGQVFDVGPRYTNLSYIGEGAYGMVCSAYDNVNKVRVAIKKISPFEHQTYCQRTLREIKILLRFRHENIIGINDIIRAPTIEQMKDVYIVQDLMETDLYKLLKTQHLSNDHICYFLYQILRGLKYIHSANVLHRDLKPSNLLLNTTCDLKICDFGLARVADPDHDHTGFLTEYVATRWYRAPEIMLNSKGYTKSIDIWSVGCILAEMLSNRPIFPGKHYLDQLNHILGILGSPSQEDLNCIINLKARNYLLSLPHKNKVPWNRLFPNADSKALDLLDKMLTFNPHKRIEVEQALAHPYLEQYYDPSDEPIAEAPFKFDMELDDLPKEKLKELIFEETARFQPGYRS

| Compound | % Inhibition ERK2 [1] [%] | % Inhibition PKA [2] [%] | % Inhibition PKC [3] [%] | % Inhibition GSK3β [4] [%] | inhibition at 10 µM [1] [%] | inhibition at 10 µM [2] [%] | inhibition at 10 µM [4] [%] | solubility limit in water containing 1% DMSO [5] |
| --- | --- | --- | --- | --- | --- | --- | --- | --- |
| N#CC1(NC(=O)C(F)(F)F)CC2CC1n1c3ccccc3c3c4c(c5c6ccccc6n2c5c31)C(=O)NC4=O (stereo not drawn) [Compound 32] | 44.03 | 23.81 | 49.33 | 72.20 |  |  |  |  |
| CCOC(=O)[C@]1(N)CC2CC1n1c3ccccc3c3c4c(c5c6ccccc6n2c5c31)C(=O)N(Cc1ccc(OC)cc1)C4=O (stereo partly drawn) [Compound 35] |  |  | 28.47 |  | 63.8 | < 10 | < 10 |  |
| COc1ccc(CN2C(=O)c3c(c4c5ccccc5n5c4c4c3c3ccccc3n4C3CC5C(N)(C(=O)O)C3)C2=O)cc1 (stereo not drawn) [Compound 36] | 73.44 | 21.80 | 65.10 | 82.71 |  |  |  |  |

The remaining lines, values ahead:

| % Inhibition ERK2 [1] [%] | % Inhibition PKA [2] [%] | % Inhibition PKC [3] [%] | % Inhibition GSK3β [4] [%] | inhibition at 10 µM [1] [%] | inhibition at 10 µM [2] [%] | inhibition at 10 µM [4] [%] | solubility limit in water containing 1% DMSO [5] | Compound |
| --- | --- | --- | --- | --- | --- | --- | --- | --- |
| 35.09 | 19.81 | 53.92 | 80.46 |  |  |  |  | NC1(C(=O)NCCO)CC2CC1n1c3ccccc3c3c4c(c5c6ccccc6n2c5c31)C(=O)N(CCO)C4=O (stereo not drawn) [Compound 37] |
| 72.93 | 86.43 | 83.88 | 95.80 |  |  |  |  | CCNC(=O)C1(N)CC2CC1n1c3ccccc3c3c4c(c5c6ccccc6n2c5c31)C(=O)NC4=O (stereo not drawn) [Compound 41] |
|  |  |  |  |  |  |  | 170 mgL^−1 and 214 mgL^−1 | Cl.NC(=O)C1(N)CC2CC1n1c3ccccc3c3c4c(c5c6ccccc6n2c5c31)C(=O)NC4=O (stereo not drawn) [NAD0241-hydrochloride salt] |
